Earlier results on two compounds are cited in patent EP2074993A1, “Venlafaxine-containing film-coated modified-release tablets” (Biovail Laboratories International S.r.l., priority 2007, dated 2009).

For this data set the following is noted: in vivo.

Consider `COc1ccc(C(CN(C)C)C2(O)CCCCC2)cc1` (racemic) [Venlafaxine, (R/S)-1-[2-(dimethylamino)-1-(4-methoxyphenyl)ethyl]cyclohexanol], for which the elimination half-life entry is “about 4 hours”.
As to `CN(C)CC(c1ccc(O)cc1)C1(O)CCCCC1` (centres unmarked) [O-desmethylvenlafaxine], the elimination half-life result is “about 8 hours”.
